From paper PMC11873239, “A covalent chemical probe for Chikungunya nsP2 cysteine protease with antialphaviral activity and proteome-wide selectivity” (Scientific Reports, 2025)
Read-outs that look alike come from different tables or passages of the source.

Legend:
Format in all cases: binding
[1] = test system: HEK293 cell lysate proteins and CHIKV nsP2; conditions: protein nsP2 (nsP2_AA993-AA1333_Tags)
[2] = biological target: HEK293 cell lysate proteins and CHIKV nsP2 (Homo sapiens, UniProt Q12872)
[3] = biological target: HEK293 cell lysate proteins and CHIKV nsP2 (Homo sapiens, UniProt Q6KC79)
[4] = biological target: HEK293 cell lysate proteins and CHIKV nsP2 (Homo sapiens, UniProt P26368)
[5] = biological target: HEK293 cell lysate proteins and CHIKV nsP2 (Homo sapiens, UniProt P01040)
Chain of HEK293 cell lysate proteins and CHIKV nsP2 (Homo sapiens, UniProt P01040) (P01040 whole entry): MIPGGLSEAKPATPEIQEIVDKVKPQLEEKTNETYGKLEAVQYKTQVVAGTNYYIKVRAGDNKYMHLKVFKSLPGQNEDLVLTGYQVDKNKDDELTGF

[6] = biological target: HEK293 cell lysate proteins and CHIKV nsP2 (Homo sapiens, UniProt Q00610)
[7] = biological target: HEK293 cell lysate proteins and CHIKV nsP2 (Homo sapiens, UniProt Q86UP2)
[8] = biological target: HEK293 cell lysate proteins and CHIKV nsP2 (Homo sapiens, UniProt P22735)
[9] = biological target: HEK293 cell lysate proteins and CHIKV nsP2 (Homo sapiens, UniProt P10599)
Chain of HEK293 cell lysate proteins and CHIKV nsP2 (Homo sapiens, UniProt P10599) (P10599 whole entry): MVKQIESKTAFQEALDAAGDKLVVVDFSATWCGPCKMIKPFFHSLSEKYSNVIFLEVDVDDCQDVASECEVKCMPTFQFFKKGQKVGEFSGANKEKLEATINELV

[10] = biological target: HEK293 cell lysate proteins and CHIKV nsP2 (Homo sapiens, UniProt P31025)
[11] = biological target: HEK293 cell lysate proteins and CHIKV nsP2 (Homo sapiens, UniProt Q15517)
[12] = biological target: HEK293 cell lysate proteins and CHIKV nsP2 (Homo sapiens, UniProt Q3YEC7)
[13] = biological target: HEK293 cell lysate proteins and CHIKV nsP2 (Homo sapiens, UniProt Q96QA5)
[14] = biological target: HEK293 cell lysate proteins and CHIKV nsP2 (Homo sapiens, UniProt Q08554)
[15] = biological target: HEK293 cell lysate proteins and CHIKV nsP2 (Homo sapiens, UniProt Q01469)
Chain of HEK293 cell lysate proteins and CHIKV nsP2 (Homo sapiens, UniProt Q01469) (Q01469 whole entry, looked up): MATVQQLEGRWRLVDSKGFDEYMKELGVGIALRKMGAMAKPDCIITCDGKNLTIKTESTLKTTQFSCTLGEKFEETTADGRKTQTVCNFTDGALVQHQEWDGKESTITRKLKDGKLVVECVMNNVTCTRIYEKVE

[16] = biological target: HEK293 cell lysate proteins and CHIKV nsP2 (Homo sapiens, UniProt Q5T749)
[17] = biological target: HEK293 cell lysate proteins and CHIKV nsP2 (Homo sapiens, UniProt Q9BQG0)
[18] = biological target: HEK293 cell lysate proteins and CHIKV nsP2 (Homo sapiens, UniProt Q14562)
[19] = biological target: HEK293 cell lysate proteins and CHIKV nsP2 (Homo sapiens, UniProt P35251)
[20] = biological target: HEK293 cell lysate proteins and CHIKV nsP2 (Homo sapiens, UniProt Q8NE71)
[21] = biological target: HEK293 cell lysate proteins and CHIKV nsP2 (Homo sapiens, UniProt P04259)
[22] = biological target: HEK293 cell lysate proteins and CHIKV nsP2 (Homo sapiens, UniProt P62979)
[23] = biological target: HEK293 cell lysate proteins and CHIKV nsP2 (Homo sapiens, UniProt P32119)
[24] = biological target: HEK293 cell lysate proteins and CHIKV nsP2 (Homo sapiens, UniProt P12273)
[25] = biological target: HEK293 cell lysate proteins and CHIKV nsP2 (Homo sapiens, UniProt Q9UHB7)
Chain of HEK293 cell lysate proteins and CHIKV nsP2 (Homo sapiens, UniProt Q9UHB7) (Q9UHB7 whole entry): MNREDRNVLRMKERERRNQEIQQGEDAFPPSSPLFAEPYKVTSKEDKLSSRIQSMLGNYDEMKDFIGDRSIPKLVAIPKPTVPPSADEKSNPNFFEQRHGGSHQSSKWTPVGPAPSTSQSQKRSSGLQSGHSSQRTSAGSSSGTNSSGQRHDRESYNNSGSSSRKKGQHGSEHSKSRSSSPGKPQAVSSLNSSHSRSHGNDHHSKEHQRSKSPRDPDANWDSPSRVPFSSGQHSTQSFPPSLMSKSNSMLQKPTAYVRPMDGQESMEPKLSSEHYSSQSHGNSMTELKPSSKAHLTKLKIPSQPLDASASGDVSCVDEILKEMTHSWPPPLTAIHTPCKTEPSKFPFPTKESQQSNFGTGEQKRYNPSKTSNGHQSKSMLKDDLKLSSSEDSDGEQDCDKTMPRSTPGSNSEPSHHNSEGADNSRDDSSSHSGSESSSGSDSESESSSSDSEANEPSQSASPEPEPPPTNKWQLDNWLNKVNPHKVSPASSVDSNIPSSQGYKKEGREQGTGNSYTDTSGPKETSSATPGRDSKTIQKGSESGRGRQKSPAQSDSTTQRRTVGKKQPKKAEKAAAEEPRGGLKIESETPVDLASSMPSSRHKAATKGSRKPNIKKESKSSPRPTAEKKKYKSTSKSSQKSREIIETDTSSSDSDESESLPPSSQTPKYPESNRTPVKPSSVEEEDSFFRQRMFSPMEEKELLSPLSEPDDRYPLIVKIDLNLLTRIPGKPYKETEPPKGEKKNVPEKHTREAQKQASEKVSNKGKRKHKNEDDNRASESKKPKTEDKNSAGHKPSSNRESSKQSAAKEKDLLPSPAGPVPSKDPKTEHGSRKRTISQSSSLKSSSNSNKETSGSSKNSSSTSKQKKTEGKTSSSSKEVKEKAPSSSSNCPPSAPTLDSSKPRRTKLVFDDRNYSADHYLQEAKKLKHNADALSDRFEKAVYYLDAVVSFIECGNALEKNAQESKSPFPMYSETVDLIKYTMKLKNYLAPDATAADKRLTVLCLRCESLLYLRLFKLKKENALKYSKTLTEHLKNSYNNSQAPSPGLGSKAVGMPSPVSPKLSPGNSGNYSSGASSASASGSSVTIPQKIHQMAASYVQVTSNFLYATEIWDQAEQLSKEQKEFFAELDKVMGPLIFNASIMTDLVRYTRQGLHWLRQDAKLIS

[26] = biological target: HEK293 cell lysate proteins and CHIKV nsP2 (Homo sapiens, UniProt Q5T750)
[27] = biological target: HEK293 cell lysate proteins and CHIKV nsP2 (Homo sapiens, UniProt P27816)
[28] = biological target: HEK293 cell lysate proteins and CHIKV nsP2 (Homo sapiens, UniProt Q9Y5B9)
[29] = biological target: HEK293 cell lysate proteins and CHIKV nsP2 (Homo sapiens, UniProt Q96P63)
[30] = biological target: HEK293 cell lysate proteins and CHIKV nsP2 (Homo sapiens, UniProt Q6ZVX7)
[31] = biological target: HEK293 cell lysate proteins and CHIKV nsP2 (Homo sapiens, UniProt P05089)
Chain of HEK293 cell lysate proteins and CHIKV nsP2 (Homo sapiens, UniProt P05089) (P05089 whole entry): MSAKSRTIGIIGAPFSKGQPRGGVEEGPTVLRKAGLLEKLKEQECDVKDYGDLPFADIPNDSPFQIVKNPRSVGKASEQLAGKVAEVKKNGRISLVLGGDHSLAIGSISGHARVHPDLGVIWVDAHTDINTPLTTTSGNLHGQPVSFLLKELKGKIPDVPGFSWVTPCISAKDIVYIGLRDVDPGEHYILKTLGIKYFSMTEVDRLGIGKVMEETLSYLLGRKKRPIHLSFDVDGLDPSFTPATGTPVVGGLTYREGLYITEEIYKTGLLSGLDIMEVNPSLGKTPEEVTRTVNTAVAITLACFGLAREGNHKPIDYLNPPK

[32] = biological target: HEK293 cell lysate proteins and CHIKV nsP2 (Homo sapiens, UniProt Q02413)
[33] = biological target: HEK293 cell lysate proteins and CHIKV nsP2 (Homo sapiens, UniProt P60709)
[34] = biological target: HEK293 cell lysate proteins and CHIKV nsP2 (Homo sapiens, UniProt Q92616)
[35] = biological target: HEK293 cell lysate proteins and CHIKV nsP2 (Homo sapiens, UniProt P13639)
[36] = biological target: HEK293 cell lysate proteins and CHIKV nsP2 (Homo sapiens, UniProt P46013)
Chain of HEK293 cell lysate proteins and CHIKV nsP2 (Homo sapiens, UniProt P46013) (P46013 whole entry): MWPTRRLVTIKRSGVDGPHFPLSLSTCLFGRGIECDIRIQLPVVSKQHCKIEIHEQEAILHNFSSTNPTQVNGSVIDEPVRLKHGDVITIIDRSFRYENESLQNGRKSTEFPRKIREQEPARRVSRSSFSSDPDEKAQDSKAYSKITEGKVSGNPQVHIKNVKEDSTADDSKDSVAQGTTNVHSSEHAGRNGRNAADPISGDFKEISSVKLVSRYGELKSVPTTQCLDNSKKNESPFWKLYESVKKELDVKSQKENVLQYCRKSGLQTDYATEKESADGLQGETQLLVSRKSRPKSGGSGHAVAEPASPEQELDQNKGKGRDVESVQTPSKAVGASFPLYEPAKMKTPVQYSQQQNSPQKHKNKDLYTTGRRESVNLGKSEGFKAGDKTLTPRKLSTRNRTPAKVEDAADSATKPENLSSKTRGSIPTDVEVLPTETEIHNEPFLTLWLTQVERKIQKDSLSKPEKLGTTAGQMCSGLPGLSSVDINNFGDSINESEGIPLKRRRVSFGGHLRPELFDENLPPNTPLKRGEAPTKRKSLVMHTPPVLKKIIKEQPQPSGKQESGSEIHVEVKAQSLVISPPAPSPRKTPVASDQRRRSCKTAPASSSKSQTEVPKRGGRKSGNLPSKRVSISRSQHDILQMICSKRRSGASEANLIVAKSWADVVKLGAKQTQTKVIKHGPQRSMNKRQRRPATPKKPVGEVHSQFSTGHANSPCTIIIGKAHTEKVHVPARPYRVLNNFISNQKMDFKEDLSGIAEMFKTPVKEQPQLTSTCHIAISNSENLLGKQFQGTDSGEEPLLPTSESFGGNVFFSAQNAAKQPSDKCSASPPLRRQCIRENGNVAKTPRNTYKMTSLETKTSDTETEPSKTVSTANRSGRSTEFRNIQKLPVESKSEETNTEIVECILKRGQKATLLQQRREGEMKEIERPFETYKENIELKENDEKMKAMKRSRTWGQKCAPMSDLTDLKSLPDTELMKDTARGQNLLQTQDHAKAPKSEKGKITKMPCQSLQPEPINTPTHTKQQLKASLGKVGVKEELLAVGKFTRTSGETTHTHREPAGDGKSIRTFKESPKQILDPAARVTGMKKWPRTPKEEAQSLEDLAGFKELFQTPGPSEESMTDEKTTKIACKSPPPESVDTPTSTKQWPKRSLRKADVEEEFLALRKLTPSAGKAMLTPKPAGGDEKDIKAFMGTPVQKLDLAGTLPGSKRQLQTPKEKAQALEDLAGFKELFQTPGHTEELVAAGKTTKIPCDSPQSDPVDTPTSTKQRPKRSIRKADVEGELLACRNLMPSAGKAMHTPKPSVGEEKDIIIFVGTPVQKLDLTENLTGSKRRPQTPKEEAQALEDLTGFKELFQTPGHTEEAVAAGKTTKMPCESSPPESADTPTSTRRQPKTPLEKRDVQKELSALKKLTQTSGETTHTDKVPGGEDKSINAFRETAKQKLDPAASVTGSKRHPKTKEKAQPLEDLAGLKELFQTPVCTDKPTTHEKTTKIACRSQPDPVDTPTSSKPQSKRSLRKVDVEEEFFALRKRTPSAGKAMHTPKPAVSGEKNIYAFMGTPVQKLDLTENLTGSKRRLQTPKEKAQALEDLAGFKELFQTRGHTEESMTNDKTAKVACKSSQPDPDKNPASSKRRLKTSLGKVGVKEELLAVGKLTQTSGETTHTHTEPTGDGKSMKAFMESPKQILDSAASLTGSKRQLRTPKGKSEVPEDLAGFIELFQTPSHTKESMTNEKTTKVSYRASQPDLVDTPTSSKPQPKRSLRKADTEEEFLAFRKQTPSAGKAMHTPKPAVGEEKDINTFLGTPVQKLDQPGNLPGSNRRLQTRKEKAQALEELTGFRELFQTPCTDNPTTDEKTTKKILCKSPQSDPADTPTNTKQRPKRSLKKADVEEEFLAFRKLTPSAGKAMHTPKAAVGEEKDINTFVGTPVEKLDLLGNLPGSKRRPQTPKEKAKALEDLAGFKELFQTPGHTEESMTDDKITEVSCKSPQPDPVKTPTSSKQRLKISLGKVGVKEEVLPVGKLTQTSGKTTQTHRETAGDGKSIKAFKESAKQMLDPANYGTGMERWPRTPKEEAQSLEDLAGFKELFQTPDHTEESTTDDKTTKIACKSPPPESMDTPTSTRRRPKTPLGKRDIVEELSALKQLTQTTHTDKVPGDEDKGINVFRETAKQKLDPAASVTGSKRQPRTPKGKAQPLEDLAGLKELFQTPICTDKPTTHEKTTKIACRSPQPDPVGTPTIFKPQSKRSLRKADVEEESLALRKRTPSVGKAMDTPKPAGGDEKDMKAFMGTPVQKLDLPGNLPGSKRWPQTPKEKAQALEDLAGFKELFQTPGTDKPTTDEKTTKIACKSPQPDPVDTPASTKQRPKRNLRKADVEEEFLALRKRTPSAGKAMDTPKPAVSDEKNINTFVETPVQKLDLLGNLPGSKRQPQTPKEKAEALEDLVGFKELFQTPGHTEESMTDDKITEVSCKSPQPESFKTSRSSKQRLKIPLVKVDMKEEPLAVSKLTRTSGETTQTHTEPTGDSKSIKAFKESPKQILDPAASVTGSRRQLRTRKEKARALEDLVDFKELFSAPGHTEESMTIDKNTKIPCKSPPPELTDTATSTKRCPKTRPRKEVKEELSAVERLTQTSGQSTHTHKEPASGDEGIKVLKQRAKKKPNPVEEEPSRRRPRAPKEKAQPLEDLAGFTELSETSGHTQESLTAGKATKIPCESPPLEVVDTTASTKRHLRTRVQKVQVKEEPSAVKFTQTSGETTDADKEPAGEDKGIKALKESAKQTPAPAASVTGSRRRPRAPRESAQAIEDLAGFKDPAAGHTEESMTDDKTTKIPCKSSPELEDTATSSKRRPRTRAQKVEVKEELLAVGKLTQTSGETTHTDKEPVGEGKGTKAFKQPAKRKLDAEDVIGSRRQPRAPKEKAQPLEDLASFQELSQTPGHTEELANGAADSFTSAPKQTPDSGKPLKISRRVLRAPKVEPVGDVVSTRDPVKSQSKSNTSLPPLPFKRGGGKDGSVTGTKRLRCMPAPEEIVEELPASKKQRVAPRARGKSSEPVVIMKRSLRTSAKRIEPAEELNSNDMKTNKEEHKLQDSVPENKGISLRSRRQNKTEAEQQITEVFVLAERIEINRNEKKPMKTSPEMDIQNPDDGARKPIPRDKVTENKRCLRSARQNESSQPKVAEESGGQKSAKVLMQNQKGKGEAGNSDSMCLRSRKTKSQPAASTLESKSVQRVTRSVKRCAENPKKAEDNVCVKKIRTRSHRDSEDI

Compound `C#CCOc1ccccc1-c1cc(C(=O)NC/C=C/S(C)(=O)=O)on1` [VS, (E)-N-(3-(methylsulfonyl)allyl)−3-(2-(prop-2-yn-1-yloxy)phenyl)isoxazole-5-carboxamide] has a Log2 fold change [1] of 1.03, a Log2 fold change ([1]; sheet nsP2 spike) of 7.13 and a Log2 fold change [2] of -1.75. It also gave a Log2 fold change [3] of -0.34, a Log2 fold change [4] of -0.62 and a Log2 fold change [5] of 1.75. For the same compound, the Log2 fold change [6] was 3.09, the Log2 fold change [7] was 0.34 and the Log2 fold change [8] was 1.60. For the same compound, the Log2 fold change [9] was 1.84, the Log2 fold change [10] was 1.54 and the Log2 fold change [11] was 1.22. For the same compound, the Log2 fold change [12] was -2.27, the Log2 fold change [13] was 1.51 and the Log2 fold change [14] was 0.93. The Log2 fold change [15] was 2.38, the Log2 fold change [16] was 2.53 and the Log2 fold change [17] was -0.66. It also gave a Log2 fold change [18] of -0.65, a Log2 fold change [19] of 0.30 and a Log2 fold change [20] of -0.92. For the same compound, the Log2 fold change [21] was 3.24, the Log2 fold change [22] was 0.71 and the Log2 fold change [23] was 2.04. It also gave a Log2 fold change [24] of 1.00, a Log2 fold change [25] of -0.42 and a Log2 fold change [26] of 2.49. It also gave a Log2 fold change [27] of -0.37, a Log2 fold change [28] of -3.45 and a Log2 fold change [29] of 1.71. It also gave a Log2 fold change [30] of 2.74, a Log2 fold change [31] of 1.79 and a Log2 fold change [32] of 1.36. It also gave a Log2 fold change [33] of 1.54, a Log2 fold change [34] of -2.86 and a Log2 fold change [35] of 1.35. For the same compound, the Log2 fold change [36] was 0.64.
